Test results reported in ChEMBL document CHEMBL3217722, “Synthesis of hybrid 4-anilinoquinoline triazines as potent antimalarial agents, their in silico modeling and bioevaluation as Plasmodium falciparumtransketolase and -hematin inhibitors” (Medchemcomm, 2012).
Values after ≈ are worked out from the molar mass of the structure shown. Active and inactive are the calls of the source. The rule behind the calls is not given here.

Experiments:
Plasmodium falciparum [1] = experiment: Antiplasmodial activity against chloroquine-resistant Plasmodium falciparum K1 after 72 hrs by SYBR Green-1 dye-based fluorescence assay; format: functional, organism-based; conditions: K1, 72 h
Plasmodium falciparum [2] = experiment: Antiplasmodial activity against chloroquine-sensitive Plasmodium falciparum 3D7 after 72 hrs by SYBR Green-1 dye-based fluorescence assay; format: functional, organism-based; conditions: 3D7, 72 h
[3] = Selectivity index, ratio of IC50 for African green monkey Vero cells to IC50 for Plasmodium falciparum; format: toxicity, cell-based; conditions: read-out: Ratio IC50
Plasmodium yoelii [4] = experiment: Inhibition of beta-hematin formation in Plasmodium yoelii infected Swiss mouse plasma after 16 hrs; format: functional
[5] = Inhibition of Plasmodium falciparum transketolase using fructose-6-phosphate as substrate by spectrophotometric analysis
Plasmodium yoelii [6] = experiment: Antimalarial activity against chloroquine-resistant Plasmodium yoelii N-67 infected in Swiss mouse assessed as mouse survival at 100 mg/kg, po qd for 4 days measured on day 28; format: functional, organism-based; design: dose 100 mg/kg
Plasmodium yoelii [7] = experiment: Antimalarial activity against chloroquine-resistant Plasmodium yoelii N-67 infected in Swiss mouse assessed as inhibition of parasitemia at 100 mg/kg, po qd for 4 days relative to control; format: functional; conditions: N-67, 96 h
Plasmodium yoelii [8] = experiment: Antimalarial activity against chloroquine-resistant Plasmodium yoelii N-67 infected in Swiss mouse assessed as inhibition of parasitemia at 50 mg/kg, po qd for 4 days relative to control; format: functional; conditions: N-67, 96 h
Plasmodium yoelii [9] = experiment: Antimalarial activity against chloroquine-resistant Plasmodium yoelii N-67 infected in Swiss mouse assessed as mouse survival at 50 mg/kg, po qd for 4 days measured on day 28; format: functional, organism-based; design: dose 50 mg/kg

Row | SMILES | IC50 (Plasmodium falciparum [1]) [µg/mL] | IC50 (Plasmodium falciparum [2]) [µg/mL] | selectivity ratio [3] | IC50 (Plasmodium yoelii [4]) [µg/mL] | IC50 [5] [µM] | Activity (Plasmodium yoelii [6]) | inhibition in vivo at 100 mg/kg (Plasmodium yoelii [7]) [%] | inhibition in vivo at 50 mg/kg (Plasmodium yoelii [8]) [%] | Activity (Plasmodium yoelii [9])
1 | Clc1ccc(Nc2nc(NCCCN3CCOCC3)nc(Nc3ccc(Nc4ccnc5cc(Cl)ccc45)cc3)n2)cc1 | 0.00858 (≈ 0.0139 µM) | 0.00463 (≈ 0.00751 µM) | 482 | 2.25 (≈ 3.65 µM) |  |  |  |  | 
2 | O=C(O)C(=O)Cc1ccc(O)cc1 [4-HYDROXYPHENYLPYRUVIC ACID] |  |  |  |  | 103 |  |  |  | 
3 | Clc1ccc2c(Nc3ccc(Nc4nc(NCCCN5CCOCC5)nc(N5CCCc6ccccc65)n4)cc3)ccnc2c1 | > 0.5 | 0.0147 (≈ 0.0236 µM) | 440 | 2.4 (≈ 3.86 µM) |  |  |  |  | 
4 | Clc1ccc2c(Nc3ccc(Nc4nc(NCCN5CCOCC5)nc(N5CCCc6ccccc65)n4)cc3)ccnc2c1 | 0.275 (≈ 0.452 µM) | 0.0174 (≈ 0.0285 µM) | 588 | 2.31 (≈ 3.8 µM) |  |  |  |  | 
5 | Clc1ccc2c(Nc3ccc(Nc4nc(NCCN5CCOCC5)nc(N5CCOCC5)n4)cc3)ccnc2c1 | 0.0532 (≈ 0.0946 µM) | 0.00587 (≈ 0.0104 µM) | 41.6 | 9.82 (≈ 17.5 µM) |  |  |  |  | 
6 | CN1CCN(c2nc(Nc3ccc(Nc4ccnc5cc(Cl)ccc45)cc3)nc(N3CCCc4ccccc43)n2)CC1 | 0.0682 (≈ 0.118 µM) | 0.0126 (≈ 0.0219 µM) | 74.4 | 2.48 (≈ 4.29 µM) |  |  |  |  | 
7 | CCN1CCN(c2nc(Nc3ccc(Nc4ccnc5cc(Cl)ccc45)cc3)nc(N3CCc4ccccc4C3)n2)CC1 | 0.116 (≈ 0.196 µM) | 0.0121 (≈ 0.0205 µM) | 75.9 | 2.25 (≈ 3.8 µM) |  |  |  |  | 
8 | COc1cccc(Nc2nc(Nc3ccc(Nc4ccnc5cc(Cl)ccc45)cc3)nc(N3CCN(C)CC3)n2)c1 |  | 0.00426 (≈ 0.0075 µM) | 117 | 2.05 (≈ 3.61 µM) |  |  |  |  | 
9 | Fc1cccc(Nc2nc(NCCCN3CCOCC3)nc(Nc3ccc(Nc4ccnc5cc(Cl)ccc45)cc3)n2)c1 | 0.00571 (≈ 0.00952 µM) | 0.00136 (≈ 0.00227 µM) | 551 | 2.06 (≈ 3.43 µM) | 76.7 | inactive | 100 |  | 
10 | CN1CCN(c2nc(Nc3ccc(Nc4ccnc5cc(Cl)ccc45)cc3)nc(N3CCOCC3)n2)CC1 | 0.00286 (≈ 0.00538 µM) | 0.00322 (≈ 0.00605 µM) | 121 | 6.5 (≈ 12.2 µM) |  |  |  |  | 
11 | COc1cccc(Nc2nc(NCCCN3CCOCC3)nc(Nc3ccc(Nc4ccnc5cc(Cl)ccc45)cc3)n2)c1 |  | 0.00298 (≈ 0.00487 µM) | 2500 | 3.49 (≈ 5.7 µM) |  |  |  |  | 
12 | Clc1ccc2c(Nc3ccc(Nc4nc(NCCCN5CCOCC5)nc(N5CCOCC5)n4)cc3)ccnc2c1 | 0.00266 (≈ 0.00462 µM) | 0.00276 (≈ 0.00479 µM) | 3320 | 2.98 (≈ 5.17 µM) |  |  | 100 | 98.4 | inactive
13 | CCN1CCN(c2nc(Nc3ccc(Nc4ccnc5cc(Cl)ccc45)cc3)nc(Nc3ccc(OC)cc3)n2)CC1 | 0.00308 (≈ 0.00529 µM) | 0.00426 (≈ 0.00732 µM) | 75.1 | 2.08 (≈ 3.57 µM) |  |  |  |  | 
14 | Fc1ccc(Nc2nc(NCCN3CCOCC3)nc(Nc3ccc(Nc4ccnc5cc(Cl)ccc45)cc3)n2)cc1 | 0.0954 (≈ 0.163 µM) | 0.00981 (≈ 0.0167 µM) | 1330 | 2.38 (≈ 4.06 µM) |  | inactive | 100 |  | 
15 | CCN1CCN(c2nc(Nc3ccc(F)cc3)nc(Nc3ccc(Nc4ccnc5cc(Cl)ccc45)cc3)n2)CC1 | 0.0198 (≈ 0.0347 µM) | 0.0111 (≈ 0.0195 µM) | 88.2 | 2.64 (≈ 4.63 µM) |  |  |  |  | 
16 | Fc1cccc(Nc2nc(Nc3ccc(Nc4ccnc5cc(Cl)ccc45)cc3)nc(N3CCCCC3)n2)c1 | 0.107 (≈ 0.197 µM) | 0.129 (≈ 0.238 µM) | 75.1 | 3.1 (≈ 5.73 µM) |  |  |  |  | 
17 | CN1CCN(c2nc(Nc3ccc(Nc4ccnc5cc(Cl)ccc45)cc3)nc(Nc3cccc(F)c3)n2)CC1 | 0.00154 (≈ 0.00277 µM) | 0.0228 (≈ 0.041 µM) | 55.3 | 3.03 (≈ 5.45 µM) |  | inactive | 100 | 99.8 | inactive
18 | Fc1cccc(Nc2nc(NCCN3CCOCC3)nc(Nc3ccc(Nc4ccnc5cc(Cl)ccc45)cc3)n2)c1 | 0.0781 (≈ 0.133 µM) | 0.04 (≈ 0.0683 µM) | 122 | 2.7 (≈ 4.61 µM) |  |  |  |  | 
19 | CN1CCN(c2nc(Nc3ccc(Cl)cc3)nc(Nc3ccc(Nc4ccnc5cc(Cl)ccc45)cc3)n2)CC1 | 0.0352 (≈ 0.0614 µM) | 0.0078 (≈ 0.0136 µM) | 66.7 | 2.17 (≈ 3.79 µM) |  | inactive | 100 |  | 

Row | SMILES | IC50 (Plasmodium falciparum [1]) [µg/mL] | IC50 (Plasmodium falciparum [2]) [µg/mL] | selectivity ratio [3] | IC50 (Plasmodium yoelii [4]) [µg/mL] | IC50 [5] [µM] | Activity (Plasmodium yoelii [6]) | inhibition in vivo at 100 mg/kg (Plasmodium yoelii [7]) [%] | inhibition in vivo at 50 mg/kg (Plasmodium yoelii [8]) [%] | Activity (Plasmodium yoelii [9])
20 | CN1CCN(c2nc(Nc3ccc(F)cc3)nc(Nc3ccc(Nc4ccnc5cc(Cl)ccc45)cc3)n2)CC1 | 0.00206 (≈ 0.0037 µM) | 0.00897 (≈ 0.0161 µM) | 122 | 2.08 (≈ 3.74 µM) |  | inactive | 100 |  | 
21 | CCN1CCN(c2nc(Nc3ccc(Nc4ccnc5cc(Cl)ccc45)cc3)nc(Nc3cccc(F)c3)n2)CC1 |  | 0.00247 (≈ 0.00433 µM) | 149 | 2.06 (≈ 3.61 µM) | 75 |  |  |  | 
22 | CCN1CCN(c2nc(Nc3ccc(Nc4ccnc5cc(Cl)ccc45)cc3)nc(N3CCCc4ccccc43)n2)CC1 | 0.0116 (≈ 0.0197 µM) | 0.0208 (≈ 0.0352 µM) | 36 | 6.55 (≈ 11.1 µM) |  | inactive | 99 | 77.8 | inactive
23 | CCN1CCN(c2nc(Nc3ccc(Nc4ccnc5cc(Cl)ccc45)cc3)nc(N3CCOCC3)n2)CC1 | 0.0147 (≈ 0.0269 µM) | 0.00216 (≈ 0.00396 µM) | 431 | 4.17 (≈ 7.64 µM) |  | inactive | 100 | 93.5 | inactive
24 | Clc1cccc(Nc2nc(NCCCN3CCOCC3)nc(Nc3ccc(Nc4ccnc5cc(Cl)ccc45)cc3)n2)c1 | 0.00882 (≈ 0.0143 µM) | 0.00382 (≈ 0.0062 µM) | 180 | 4.56 (≈ 7.4 µM) | 76.4 |  |  |  | 
25 | CCN1CCN(c2nc(Nc3ccc(Nc4ccnc5cc(Cl)ccc45)cc3)nc(Nc3cccc(OC)c3)n2)CC1 |  | 0.0089 (≈ 0.0153 µM) | 73 | 2.25 (≈ 3.87 µM) |  |  |  |  | 
26 | CCN1CCN(c2nc(Nc3ccc(Nc4ccnc5cc(Cl)ccc45)cc3)nc(Nc3cccc(Cl)c3)n2)CC1 | 0.00496 (≈ 0.00846 µM) | 0.00211 (≈ 0.0036 µM) | 318 | 2.06 (≈ 3.51 µM) | 74.5 |  |  |  | 
27 | CN1CCN(c2nc(Nc3ccc(Nc4ccnc5cc(Cl)ccc45)cc3)nc(N3CCc4ccccc4C3)n2)CC1 |  | 0.0281 (≈ 0.0486 µM) | 48.4 | 2.81 (≈ 4.86 µM) |  |  |  |  | 
28 | COc1ccc(Nc2nc(NCCCN3CCOCC3)nc(Nc3ccc(Nc4ccnc5cc(Cl)ccc45)cc3)n2)cc1OC | 0.0026 (≈ 0.00405 µM) | 0.00458 (≈ 0.00713 µM) | 413 | 2.3 (≈ 3.58 µM) |  |  |  |  | 
29 | COc1ccc(Nc2nc(Nc3ccc(Nc4ccnc5cc(Cl)ccc45)cc3)nc(N3CCN(C)CC3)n2)cc1OC | 0.00486 (≈ 0.00813 µM) | 0.00504 (≈ 0.00843 µM) | 169 | 3.05 (≈ 5.1 µM) |  |  |  |  | 
30 | Clc1ccc2c(Nc3ccc(Nc4nc(NCCCN5CCOCC5)nc(N5CCc6ccccc6C5)n4)cc3)ccnc2c1 | 0.0555 (≈ 0.0892 µM) | 0.0203 (≈ 0.0327 µM) | 436 | 2.09 (≈ 3.36 µM) |  |  |  |  | 
31 | Clc1ccc2c(Nc3ccc(Nc4nc(NCCN5CCOCC5)nc(N5CCc6ccccc6C5)n4)cc3)ccnc2c1 |  | 0.0452 (≈ 0.0743 µM) | 1160 | 2.08 (≈ 3.42 µM) |  |  |  |  | 
32 | COc1ccc(Nc2nc(NCCCN3CCOCC3)nc(Nc3ccc(Nc4ccnc5cc(Cl)ccc45)cc3)n2)cc1 | 0.155 (≈ 0.253 µM) | 0.00381 (≈ 0.00622 µM) | 1310 | 2.34 (≈ 3.82 µM) | 72.7 |  |  |  | 
33 | Fc1ccc(Nc2nc(NCCCN3CCOCC3)nc(Nc3ccc(Nc4ccnc5cc(Cl)ccc45)cc3)n2)cc1 |  | 0.0158 (≈ 0.0264 µM) | 682 | 2.17 (≈ 3.62 µM) |  |  |  |  | 
34 | CCN1CCN(c2nc(Nc3ccc(Cl)cc3)nc(Nc3ccc(Nc4ccnc5cc(Cl)ccc45)cc3)n2)CC1 | 0.00981 (≈ 0.0167 µM) | 0.00414 (≈ 0.00706 µM) | 67.6 | 2.05 (≈ 3.5 µM) |  |  |  |  | 
35 | CCN1CCN(c2nc(Nc3ccc(Nc4ccnc5cc(Cl)ccc45)cc3)nc(Nc3ccc(OC)c(OC)c3)n2)CC1 | 0.0023 (≈ 0.00376 µM) | 0.00258 (≈ 0.00421 µM) | 624 | 2.45 (≈ 4 µM) | 85.5 |  |  |  | 
36 | CN1CCN(c2nc(Nc3ccc(Nc4ccnc5cc(Cl)ccc45)cc3)nc(Nc3cccc(Cl)c3)n2)CC1 | 0.0169 (≈ 0.0295 µM) | 0.00241 (≈ 0.00421 µM) | 361 | 2.42 (≈ 4.23 µM) | 80.2 |  |  |  | 
37 | Clc1cccc(Nc2nc(NCCN3CCOCC3)nc(Nc3ccc(Nc4ccnc5cc(Cl)ccc45)cc3)n2)c1 | 0.00649 (≈ 0.0108 µM) | 0.0306 (≈ 0.0508 µM) | 101 | 2.01 (≈ 3.34 µM) |  |  |  |  | 
38 | Fc1ccc(Nc2nc(Nc3ccc(Nc4ccnc5cc(Cl)ccc45)cc3)nc(N3CCCCC3)n2)cc1 | > 0.5 | 0.0417 (≈ 0.0772 µM) | 520 | 2.43 (≈ 4.49 µM) |  |  |  |  | 
